# Legend:
# [1] = tested on: human neuroblastoma cell lines SH-SY5Y treated with 1-methyl-4-phenylpyridinium (MPP+); experiment: Improvement of mitochondrial function (Alamar Blue mitochondrial oxidation reduction activity) in MPP+-treated SH-SY5Y cells; type: cell-based; conditions: 1.5 mM MPP+, relative to cells in DMSO alone = 100%, read-out: Fluorescence Intensity (%); for activity at 0.01 µg/mL: compound 0.01 μg/ml; for activity at 0.03 µg/mL: compound 0.03 μg/ml; for activity at 0.1 µg/mL: compound 0.1 μg/ml; for activity at 0.3 µg/mL: compound 0.3 μg/ml; for activity at 1 µg/mL: compound 1 μg/ml
# Experimental: In human neuroblastoma cell lines SH-SY5Y in which mitochondrial function was damaged by MPP^+ treatment (Bollimuntha S. et al., J Biol Chem, 280, 2132-2140 (2005) and Shang T. et al., J Biol Chem, 280, 34644-34653 (2005)), the improvement of mitochondrial function was evaluated on the basis of the measurement value for mitochondrial oxidation reduction activity using Alamar Blue fluorescent dye after the compound addition (Nakai M. et al, Exp Neurol, 179, 103-110 (2003)).
# The human neuroblastoma cell lines SH-SY5Y were cultured in Dulbecco's Modified Eagle's Medium containing 10% fetal bovine serum (DMEM containing 50 units/ml penicillin and 50 μg/ml streptomycin as antibiotics) at 37° C. in the presence of 5% carbon dioxide. Cells were scattered on a poly-D-lysine-coated 96-well black plate at a concentration of 3−6×10^4 cells/cm^2 (medium amount: 100 μl/well) and cultured in the medium for two days. Further, the medium was changed to DMEM containing a 1% N2 supplement (N2-DMEM) or to a medium (100 μl/well) in which 1.5 mM MPP^+ was dissolved. The cells were cultured therein for 39 to 48 hours, and then subjected to a mitochondrial oxidation reduction activity measurement system. A sample compound that had been previously dissolved in dimethyl sulfoxide (DMSO) was diluted with N2-DMEM and added in a volume of 10 μl/well 24 hours before the activity measurement (final compound concentration: 0.01 to 1 μg/ml).
# After removal of the medium by suction, a balanced salt solution containing 10% Alamar Blue (154 mM sodium chloride, 5.6 mM potassium chloride, 2.3 mM calcium chloride, 1.0 mM magnesium chloride, 3.6 mM sodium hydrogen carbonate, 5 mM glucose, 5 mM HEPES, pH 7.2) was added in a volume of 100 μl/well, and reacted in an incubator at 37° C. for 1 hour. The fluorescent intensity was detected using a fluorescence detector (a product of Hamamatsu Photonics K.K., excitation wavelength: 530 nm, measurement wavelength: 580 nm) to thereby measure the mitochondrial oxidation reduction activity.
# The fluorescent intensity of the well of the cells cultured in a medium containing MPP^+ and each of the sample compounds was relatively evaluated based on the 100% fluorescent intensity of the well of the cells cultured in a medium containing DMSO alone (final concentration: 0.1%).
Compound,activity at 0.01 µg/mL [1],activity at 0.03 µg/mL [1],activity at 0.1 µg/mL [1],activity at 0.3 µg/mL [1],activity at 1 µg/mL [1],melting point
"CCCOc1cc(F)cc2c(=O)c(-c3ccc(OC)cc3)c[nH]c12 [Example 34, 6-Fluoro-3-(4-methoxyphenyl)-8-propoxy-1H-quinolin-4-one]",47%,53%,53%,63%,53%,153 to 154 °C
"CCCOc1c(OC)cc(C)c2c(=O)c(-c3ccc(OC)cc3)c[nH]c12 [Example 37, 7-Methoxy-3-(4-methoxyphenyl)-5-methyl-8-propoxy-1H-quinolin-4-one]",47%,54%,55%,60%,59%,195 to 196 °C
"CCCOc1ccc(OC)c2c(=O)c(-c3ccc(Cl)cc3Cl)c[nH]c12 [Example 38, 3-(2,4-Dichlorophenyl)-5-methoxy-8-propoxy-1H-quinolin-4-one]",47%,54%,67%,75%,65%,125 °C
"CCCOc1ccc(OC)c2c(=O)c(-c3cccc4ccccc34)c[nH]c12 [Example 51, 5-Methoxy-3-naphthalen-1-yl-8-propoxy-1H-quinolin-4-one]",37%,45%,54%,65%,49%,130 to 133 °C
"CCCOc1ccc(C)c2c(=O)c(-c3ccsc3)c[nH]c12 [Example 58, 5-Methyl-8-propoxy-3-thiophen-3-yl-1H-quinolin-4-one]",42%,53%,60%,61%,55%,104 to 107 °C
"CCCOc1ccc(C)c2c(=O)c(-c3ccc4c(c3)OCO4)c[nH]c12 [Example 60, 3-Benzo[1,3]dioxol-5-yl-5-methyl-8-propoxy-1H-quinolin-4-one]",52%,65%,75%,70%,44%,110 to 115 °C
"CCCOc1ccc(C)c2c(=O)c(-c3csc4ccccc34)c[nH]c12 [Example 63, 3-Benzo[b]thiophen-3-yl-5-methyl-8-propoxy-1H-quinolin-4-one]",40%,48%,57%,43%,21%,80 to 82 °C
"CCCOc1ccc(COC)c2c(=O)c(-c3ccc(OC)cc3)c[nH]c12 [Example 64, 5-Methoxymethyl-3-(4-methoxyphenyl)-8-propoxy-1H-quinolin-4-one]",51%,56%,63%,53%,38%,81 to 83 °C
"COc1ccc(-c2c[nH]c3c(N4CCCC4)ccc(C)c3c2=O)cc1 [Example 68, 3-(4-Methoxyphenyl)-5-methyl-8-pyrrolidin-1-yl-1H-quinolin-4-one]",49%,56%,62%,57%,33%,177 to 178 °C
"CCCCc1ccc(C(=O)N(C)C)c2c(=O)c(-c3ccc(OC)cc3)c[nH]c12 [Example 82, 8-Butyl-3-(4-methoxyphenyl)-4-oxo-1,4-dihydroquinolin-5-carboxylic acid dimethylamide]",63%,62%,62%,69%,81%,198 to 200 °C
"COc1ccc(-c2c[nH]c3c(OCC4CC4)cc(C)c(C)c3c2=O)cc1 [Example 83, 8-Cyclopropylmethoxy-3-(4-methoxyphenyl)-5,6-dimethyl-1H-quinolin-4-one]",65%,70%,67%,62%,29%,99 to 101 °C
"COc1ccc(-c2c[nH]c3c(Br)ccc(C)c3c2=O)cc1 [Example 86, 8-Bromo-3-(4-methoxyphenyl)-5-methyl-1H-quinolin-4-one]",60%,65%,65%,65%,52%,185 to 186 °C
"CCCOc1ccc(C(=O)N(C)C)c2c(=O)c(-c3ccc(OC)cc3)c[nH]c12 [Example 87, 3-(4-Methoxyphenyl)-4-oxo-8-propoxy-1,4-dihydroquinolin-5-carboxylic acid dimethylamide]",57%,57%,60%,65%,66%,218 to 220 °C
"CCCOc1ccc(C)c2c(=O)c(-c3ccncc3)c[nH]c12 [Example 95, 5-Methyl-8-propoxy-3-pyridin-4-yl-1H-quinolin-4-one]",51%,56%,57%,61%,47%,112 to 113 °C
"COc1ccc(-c2c[nH]c3c(-c4ccco4)ccc(C)c3c2=O)cc1 [Example 96, 8-Furan-2-yl-3-(4-methoxyphenyl)-5-methyl-1H-quinolin-4-one]",54%,64%,68%,60%,23%,129 to 131 °C
"COc1ccc(OCC2CC2)c2[nH]c(C)c(-c3ccco3)c(=O)c12 [Example 109, 8-Cyclopropylmethoxy-3-furan-2-yl-5-methoxy-2-methyl-1H-quinolin-4-one]",49%,62%,65%,82%,73%,189 to 190 °C

# Source: patent publication US20130217678A1, “PHARMACEUTICAL AGENT COMPRISING QUINOLONE COMPOUND” (OTSUKA PHARMACEUTICAL CO., LTD., priority 2008, published 2013)
